Like-named read-outs stand apart in the source and are kept apart here.
Columns and labels:
DosT [1] = biological target: T1, DosT (Mycobacterium tuberculosis, UniProt P9WGK1); format: binding; conditions: for binding to DosT heme iron (nitrosylated / carbonylated heme formation): deoxy DosT (DTH treated), UV-visible and EPR spectroscopy; for binding to DosT heme iron in the presence of O2: oxy DosT (Fe2+-O2)
DosS [2] = biological target: T2, DosS (Mycobacterium tuberculosis, UniProt P9WGK3); format: binding; conditions: for binding to DosS heme iron (heme-nitrosyl / heme-carbonyl formation): ferrous DosS (DTH treated), UV-visible and EPR spectroscopy
T2 sequence (P9WGK3 whole entry): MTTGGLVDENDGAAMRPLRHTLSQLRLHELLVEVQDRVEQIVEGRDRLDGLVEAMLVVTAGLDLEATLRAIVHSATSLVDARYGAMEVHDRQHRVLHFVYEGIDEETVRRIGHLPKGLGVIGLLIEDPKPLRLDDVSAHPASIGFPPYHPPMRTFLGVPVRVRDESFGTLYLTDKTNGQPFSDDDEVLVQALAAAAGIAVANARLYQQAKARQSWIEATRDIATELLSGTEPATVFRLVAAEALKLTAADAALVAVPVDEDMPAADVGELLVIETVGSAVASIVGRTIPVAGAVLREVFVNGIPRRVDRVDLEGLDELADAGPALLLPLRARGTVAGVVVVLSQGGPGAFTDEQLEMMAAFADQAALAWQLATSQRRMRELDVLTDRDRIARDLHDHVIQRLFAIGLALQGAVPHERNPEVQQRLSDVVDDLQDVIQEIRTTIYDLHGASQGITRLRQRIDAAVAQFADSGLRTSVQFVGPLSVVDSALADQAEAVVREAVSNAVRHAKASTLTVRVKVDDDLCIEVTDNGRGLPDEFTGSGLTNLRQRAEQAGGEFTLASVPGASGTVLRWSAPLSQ

DosS [3] = biological target: T2, DosS; format: biochemical
Protocol: (§1) In-vitro phosphorylation assays were performed according to previously described methods (Roberts et al., J. Biol. Chem., 2004, 279:22) and analyzed on 4-20% Tris-HCl gradient PAGE gels, dried and exposed to X-ray film overnight at −80° C. Formation of a heme-nitrosyl/carbonyl complex was first confirmed by absorption spectroscopy before analyzing samples for autokinase activity. As an additional control, air exposed samples were also treated with proline NONOate. The effect of CO on autokinase activity was measured similarly as described for NO, except that protein samples were flushed with 100% CO for 30 seconds. All autokinase reactions were performed inside the glove box.

DosT [4] = biological target: T1, DosT; format: biochemical
Protocol: as §1

[5] = DTH reduced DosS (Fe2+) exposed to ligand, relative to met DosS

T1 sequence (P9WGK1 whole entry): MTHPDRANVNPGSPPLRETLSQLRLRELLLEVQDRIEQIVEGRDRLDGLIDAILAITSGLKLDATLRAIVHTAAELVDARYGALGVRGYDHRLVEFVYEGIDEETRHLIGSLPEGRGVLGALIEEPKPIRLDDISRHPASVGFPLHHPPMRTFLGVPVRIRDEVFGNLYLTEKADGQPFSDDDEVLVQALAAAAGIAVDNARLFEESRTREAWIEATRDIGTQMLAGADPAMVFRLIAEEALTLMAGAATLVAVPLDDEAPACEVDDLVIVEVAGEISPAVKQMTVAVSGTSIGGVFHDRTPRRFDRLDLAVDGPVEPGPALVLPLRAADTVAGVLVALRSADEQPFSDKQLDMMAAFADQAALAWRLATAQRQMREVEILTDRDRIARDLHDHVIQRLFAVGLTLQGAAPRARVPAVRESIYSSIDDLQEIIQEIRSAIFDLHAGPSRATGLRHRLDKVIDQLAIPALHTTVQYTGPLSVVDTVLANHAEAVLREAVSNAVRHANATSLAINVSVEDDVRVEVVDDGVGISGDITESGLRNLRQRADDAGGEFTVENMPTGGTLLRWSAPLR

SMILES | binding to DosT heme iron (nitrosylated / carbonylated heme formation) (DosT [1]) | binding to DosT heme iron in the presence of O2 (DosT [1]) | binding to DosS heme iron (heme-nitrosyl / heme-carbonyl formation) (DosS [2]) | effect on DosS autokinase activity (DosS [3]; [5]) | further results
[N]=O [NO, nitric oxide] | binds deoxy DosT | but not NO can effectively substitute O2 from oxy DosT | binds DosS | significantly increased autokinase activity to levels comparable to active ferrous DosS autokinase activity | effect on DosT autokinase activity (DosT [4]; ligand bound to DosT, compared with deoxy or oxy DosT): significantly increased autokinase activity as compared to inactive oxy DosT
O=C([O-])[C@@H]1CCCN1/[N+]([O-])=N/[O-].[Na+].[Na+] [proline NONOate] | – | did not generate any detectable nitrosyl-heme species | – | – | binding to DosS heme iron (nitrosyl-heme EPR signal) (DosS [2]; air exposed (met, Fe3+) DosS): no EPR signal characteristic of a nitrosyl-heme species was generated
[C-]#[O+] [CO, carbon monoxide] | highly characteristic of the formation of nitrosylated and carbonylated heme species | highly indicative of a heme-carbonyl complex | generated heme-nitrosyl and heme-carbonyl DosS species | significantly increased autokinase activity as compared to inactive met DosS | effect on DosS autokinase activity (DosS [3]; met DosS (Fe3+) exposed to ligand): found not to generate any further autokinase activity; rank of DosT autokinase activity (DosT [4]; deoxy DosT (DTH reduced) treated with ligand vs untreated): deoxy DosT showed the highest autokinase activity, followed by CO-DosT and finally oxy DosT; effect on DosT autokinase activity (DosT [4]; oxy DosT treated with ligand on the bench): significantly enhanced autokinase activity compared to inactive oxy DosT
O=O [O2, oxygen] | – | – | – | – | state of DosT heme iron after air exposure (DosT [1]): air exposed DosT is in the oxygen bound (oxy) form; effect on DosS heme iron oxidation state (DosS [2]): rapidly oxidized by O2 to generate met DosS; effect on DosS autokinase activity (DosS [3]): dramatically decreases its autokinase activity; effect on DosT autokinase activity (DosT [4]): inhibits autokinase activity
